# In patent publication US7179825B2, “Retinoic acid mimetic anilides” (Janssen Pharmaceutica N.V., priority 1997, dated 2007):
# What was measured:
# [1] = system: metabolism of retinoic acid in human breast cancer cells; test: Inhibition of retinoic acid (RA) metabolism (Example C.1); format: cell-based; conditions: MCF-7 human breast cancer cells, 3H-RA as substrate; concentration needed to reduce the amount of metabolites to 50% of the control
# Source text: The property to delay the metabolism of retinoic acid can be evidenced in various in vitro and in vivo experiments. A particular in vitro procedure is described in example C.1 and tests the inhibitory activity of the compounds of formula (I) on the metabolism of retinoic acid in human breast cancer cells. The compounds of the present invention were also effective in suppressing induced vaginal keratinization effects in ovariectomized rats as is described in example C.2.
# Inhibition of Retinoic Acid (RA) Metabolism
# MCF-7 human breast cancer cells were grown as stock cultures according to art-known protocols. One day before the experiment, RA is added to the stock cultures to stimulate RA-metabolism. At the start of the experiment, cell suspensions were incubated in a tissue culture medium containing ^3H-RA as the substrate. Different concentrations of the test compound (dissolved in 1% DMSO) were added to the incubation mixtures, and at the end of the incubation, the unmetabolized RA is separated from its polar metabolites. The fraction containing the polar ^3H-labelled metabolites was collected and counted in a scintillation counter. For each experiment, a control and a blank incubation were run in parallel. Table 22 list the IC50 value (defined as the concentration in M needed to reduce the amount of metabolites to 50% of the control).
# Ovariectomized rats = test: Vaginal keratinization test on ovariectomized rats (Example C.2); format: in vivo; conditions: estradiol undecylate induced keratinization, per os once daily on days 1-3, active dose = 50% of rats show complete suppression
# How it was run: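 Value is the lowest oral dose (mg/kg) at which half of tested rats show complete suppression of estradiol undecylate-induced vaginal keratinization by histology. Ovariectomized rats received 100 μg/100 g estradiol undecylate s.c., then compound or PEG 200 vehicle p.o. daily for three days; sacrifice one day later.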
Compound,IC50 [1] [nM],LAD (lowest active dose) (Ovariectomized rats) [mg/kg]
CC(C)C(c1ccc(NC(=O)c2ccccc2)cc1)n1ccnc1 (racemic) [Compound 166],1.75,5.00
CC(C)C(c1ccc(NC(=O)Nc2ccccc2)cc1)n1ccnc1 (racemic) [Compound 742],0.261,10.00
CCC(c1ccc(NC(=O)/C(C)=C/c2ccccc2)cc1)n1ccnc1 (racemic) [Compound 460],36.3,>20.00
COc1ccc(/C=C(\C)C(=O)Nc2ccc(C(C(C)C)n3ccnc3)cc2)cc1 (racemic) [Compound 582],1.58,>10.00
"COc1cc(CC(=O)Nc2ccc(C(C(C)N(C)C)n3ccnc3)cc2)ccc1Cl (single isomer, unassigned) [Compound 311]",0.664,2.50
CC(=O)Nc1ccc(/C=C(\C)C(=O)Nc2ccc(C(C(C)C)n3ccnc3)cc2)cc1 (stereo not shown) [Compound 612],16.8,10.00
CC(C)C(c1ccc(NC(=O)C2(c3ccccc3)CC2)cc1)n1ccnc1 (stereo not shown) [Compound 190],> 100,>10.00
CC(C)C(c1ccc(NC(=O)Nc2cc(F)ccc2F)cc1)n1ccnc1 (racemic) [Compound 728],1.41,5.00
"COc1ccccc1OCC(=O)Nc1ccc(C(C(C)N(C)C)n2ccnc2)cc1 (single isomer, unassigned) [Compound 351]",5.69,>5.00
O=C(Nc1ccc(C(c2cccc(C(F)(F)F)c2)n2ccnc2)cc1)Nc1cc(F)ccc1F (racemic) [Compound 709],2.4,5.00
O=C(Cc1ccc(Cl)cc1)Nc1ccc(C(c2ccc(Cl)cc2)n2ccnc2)cc1 (racemic) [Compound 356],> 100,>10.00
CC(=Cc1cc2ccccc2o1)C(=O)Nc1ccc(C(C(C)C)n2ccnc2)cc1 (stereo not shown) [Compound 600],36.7,>10.00
CC(C)NC(=O)Nc1ccc(C(C(C)C)n2ccnc2)cc1 (racemic) [Compound 268],7.79,>10.00
C/C(=C\c1ccc2ncccc2c1)C(=O)Nc1ccc(C(C(C)C)n2ccnc2)cc1 (racemic) [Compound 590],2.78,>10.00
CCOc1ccc(CC(=O)Nc2ccc(C(C(CC)CC)n3cncn3)cc2)cc1OCC (racemic) [Compound 82],1.16,2.50
Cc1ccccc1C(=Cc1ccccc1)C(=O)Nc1ccc(C(C(C)C)n2ccnc2)cc1 (racemic) [Compound 456],140,>20.00
CC(C)C(c1ccc(NC(=O)C2CCCCC2)cc1)n1ccnc1 (racemic) [Compound 193],12.1,>10.00
"CC(Sc1ccccc1)C(c1ccc(NC(=O)Cc2ccc(Cl)cc2)cc1)n1ccnc1 (single isomer, unassigned) [Compound 369]",82.2,10.00

Compound,IC50 [1] [nM],LAD (lowest active dose) (Ovariectomized rats) [mg/kg]
C/C(C(=O)Nc1ccc(C(C(C)C)n2ccnc2)cc1)=C(/C)c1ccccc1 (racemic) [Compound 176],18.7,>10.00
CCCC(C)C(c1ccc(NC(=O)Cc2ccc(OC)c(OC)c2)cc1)n1cncn1 (racemic) [Compound 639],1.68,2.50
CC(C(=O)Nc1ccc(C(C(C)C)n2ccnc2)cc1)=C(c1ccccc1)c1ccsc1 (mixture of isomers) [Compound 518],> 100,>10.00
"CCC(C(c1ccc(NC(C)=O)cc1)n1ccnc1)N(C)C (single isomer, unassigned) [Compound 558]",1.32,>5.00
CC(C)C(c1ccc(NC(=O)Nc2cnccn2)cc1)n1ccnc1 (racemic) [Compound 271],2.45,10.00
C/C(=C\c1ccccc1)C(=O)Nc1ccc(C(C2CCCC2)n2ccnc2)cc1 (racemic) [Compound 470],18.7,>20.00
CCC/C(=C\c1ccccc1)C(=O)Nc1ccc(C(C(C)C)n2ccnc2)cc1 (racemic) [Compound 464],149,>20.00
CC(C)C(c1ccc(NC(=O)Nc2cccc(F)c2)cc1)c1cccnc1 (racemic) [Compound 690],> 100,>10.00
"COc1ccc(CCCC(=O)Nc2ccc(C(C(C)N(C)C)n3ccnc3)cc2)cc1OC (single isomer, unassigned) [Compound 336]",1.91,–
CC(=O)Nc1ccc(C(c2cccc(F)c2)n2cncn2)cc1 (stereo not shown) [Compound 616],> 1000,–
Cc1ccoc1C(=O)Nc1ccc(C(C(C)C)n2ccnc2)cc1 (racemic) [Compound 226],16.9,–
O=C(Nc1ccc(C(c2ccc(Cl)cc2)n2ccnc2)cc1)Nc1cccc(F)c1 (racemic) [Compound 731],> 100,–
O=C(/C=C/c1ccccc1)Nc1ccc(C(c2cccc(C(F)(F)F)c2)n2cncn2)cc1 (racemic) [Compound 617],151,–
CC(C)C(c1ccncc1)c1ccc(NC(=O)Cc2ccc(Cl)cc2)cc1 (racemic) [Compound 685],90.8,–
O=C(C=C(c1ccccc1)c1cccnc1)Nc1ccc(C(c2ccc(F)cc2)n2ccnc2)cc1 (racemic) [Compound 517],36.9,–
O=C(C=C(c1ccccc1)c1cccnc1)Nc1ccc(C(c2ccc(Cl)cc2)n2ccnc2)cc1 (racemic) [Compound 516],> 1000,–
CCC(CC)C(c1ccc(NC(=O)COc2ccccc2OC)cc1)n1cncn1 (racemic) [Compound 12],0.0365,–
CC(C(c1ccc(NC(=O)Cc2ccc(O)c(Cl)c2)cc1)n1cncn1)N(C)C (mixture of isomers) [Compound 299],0.772,–

# Second part, led by results:
IC50 [1] [nM],Compound,LAD (lowest active dose) (Ovariectomized rats) [mg/kg]
1.48,CCOc1ccc(CC(=O)Nc2ccc(C(C(CC)CC)n3ccnc3)cc2)cc1 (racemic) [Compound 95],5.00
21.5,COc1ccc(CC(=O)Nc2ccc(C(C(C)C)n3ccnc3)cc2)cc1OC (stereo not shown) [Compound 140],5.00
39.8,"CCC(CC)C(c1ccc(NC(=O)Cc2ccc(C)c(OC)c2)cc1)n1cncn1 (single isomer, unassigned) [Compound 783]",5.00
1.57,CC(C)C(c1ccc(NC(=O)Cc2cccc(O)c2)cc1)n1ccnc1 (racemic) [Compound 667],5.00
0.417,CCOc1ccc(CC(=O)Nc2ccc(C(C(CC)CC)n3cncn3)cc2)cc1Cl (racemic) [Compound 75],2.50
0.569,CCOc1ccc(CCCC(=O)Nc2ccc(C(C(CC)CC)n3ccnc3)cc2)cc1 (racemic) [Compound 48],2.50
0.255,CCC(CC)C(c1ccc(NC(=O)Cc2ccc(O)c(Cl)c2)cc1)n1ccnc1 (racemic) [Compound 117],>2.50
1.03,CCC(CC)C(c1ccc(NC(=O)Cc2ccc(O)cc2)cc1)n1ccnc1 (racemic) [Compound 111],>2.50
1.06,CCC(CC)C(c1ccc(NC(=O)Cc2ccc(C)cc2)cc1)n1ccnc1 (racemic) [Compound 94],5.00
1.04,CCC(CC)C(c1ccc(NC(=O)Cc2ccc3c(c2)C(C)(C)CCC3(C)C)cc1)n1ccnc1 (racemic) [Compound 38],5.00
1.03,CCC(CC)C(c1ccc(NC(=O)C2Oc3ccccc3O2)cc1)n1ccnc1 (stereo not shown) [Compound 34],2.50
1.95,CCOc1ccc(CC(=O)Nc2ccc(C(C(C)C)n3ccnc3)cc2)cc1 (racemic) [Compound 663],2.50
0.0397,CCC(CC)C(c1ccc(NC(=O)Cc2cc(C)ccc2O)cc1)n1ccnc1 (racemic) [Compound 124],–
33,"CC(C)C(c1ccc(NC(=O)Cc2ccc(N)cc2)cc1)n1ccnc1 (single isomer, unassigned) [Compound 147]",–
4.57,"CCC(CC)C(c1ccc(NC(=O)Cc2cccc(O)c2)cc1)n1ccnc1 (stereo not shown) [Compound 780, (A)-N-[4-[2-ethyl-1-(1H-imidazol-1-yl)butyl]phenyl]-3-hydroxybenzeneacetamide ethanedioate (1:1)]",–
3.24,"CCC(CC)C(c1ccc(NC(=O)Cc2cccc(O)c2)cc1)n1ccnc1 (stereo not shown) [Compound 781, (B)-N-[4-[2-ethyl-1-(1H-imidazol-1-yl)butyl]phenyl]-3-hydroxy-benzeneacetamide ethanedioate (1:1)]",–
0.0234,CCC(CC)C(c1ccc(NC(=O)Cc2ccc(OC)c(O)c2)cc1)n1ccnc1 (racemic) [Compound 108],–
